Patent US20220288213A1, “INSULIN ANALOGUES WITH GLUCOSE REGULATED CONFORMATIONAL SWITCH” (Thermalin Inc., priority 2019, published 2022)

Key:
[1] = Alizarin Red S (ARS) competitive assay, fructose as competitor; type: binding; settings: 20 μm ARS, 0.1 mM test compound, competitor 0-25 mM, pH 7.4; a decrease means ARS is displaced
Description: Stock solutions of test compounds, competitor (polyols, i.e., fructose and glucose), and Alizarin Red S (ARS) were dissolved in 0.1 mM Sodium Phosphate, pH 7.4. In a 96-well plate, stock solutions were combined to final concentrations of 20 μm ARS, 0.1 mM test compound, and varying competitor concentrations (0, 5, 10, 15, and/or 25 mM). Final solution (75 μL) was added to each plate well. Fluorescence data was acquired on Molecular Devices SpectraMax M2 with excitation at 456 nm and emission at 600 nm.
In this assay, the selectivity of synthesized constructs for glucose was determined using the ARS competitive assay. Test articles were incubated with ARS and competitors (i.e. glucose and fructose) were added at varying concentrations. ARS fluorescence increases when the molecule interacts with boronic acids. The fluorescence was measured after the addition of the competitor. A decrease in fluorescence indicates the displacement of the ARS molecule by the sensor. All data were normalized to the fluorescence of an untreated solution (ARS bound to the sensing unit). […] This was not observed when FPBA was incubated with glucose. […] These are peptides modified to include glucose sensors at the lysyl residue. DA-Z4 is an L-diaminopropionic acid modified to include two benzoxoxaboroles. DA-Z16 is an D-diaminobutyric acid modified to include two benzoxaboroles. […]

[2] = Alizarin Red S (ARS) competitive assay, glucose as competitor; type: binding
Description: Stock solutions of test compounds, competitor (polyols, i.e., fructose and glucose), and Alizarin Red S (ARS) were dissolved in 0.1 mM Sodium Phosphate, pH 7.4. In a 96-well plate, stock solutions were combined to final concentrations of 20 μm ARS, 0.1 mM test compound, and varying competitor concentrations (0, 5, 10, 15, and/or 25 mM). Final solution (75 μL) was added to each plate well. Fluorescence data was acquired on Molecular Devices SpectraMax M2 with excitation at 456 nm and emission at 600 nm. In this assay, the selectivity of synthesized constructs for glucose was determined using the ARS competitive assay. Test articles were incubated with ARS and competitors (i.e. glucose and fructose) were added at varying concentrations. ARS fluorescence increases when the molecule interacts with boronic acids. The fluorescence was measured after the addition of the competitor. A decrease in fluorescence indicates the displacement of the ARS molecule by the sensor. All data were normalized to the fluorescence of an untreated solution (ARS bound to the sensing unit). […] This was not observed when FPBA was incubated with glucose. […] These are peptides modified to include glucose sensors at the lysyl residue. DA-Z4 is an L-diaminopropionic acid modified to include two benzoxoxaboroles. DA-Z16 is an D-diaminobutyric acid modified to include two benzoxaboroles. […]

| Compound | ARS fluorescence signal when treated with fructose [1] | ARS fluorescence signal decrease when incubated with glucose ([2]; 20 μm ARS, 0.1 mM test compound, competitor 0-25 mM, pH 7.4) | binding to glucose compared to monoboronic acids such as FPBA and FPBA KB28 PB29 ([2]; ARS data) |
| --- | --- | --- | --- |
| fluoro-phenylboronic acid [FPBA] | fluorescence signal decreases | not observed |  |
| O=C(NC[C@H](NC(=O)c1ccc2c(c1)B(O)OC2)C(=O)O)c1ccc2c(c1)B(O)OC2 [DA-Z4, (S)-2,3-bis(1-hydroxy-1,3-dihydrobenzo[c][1,2]oxaborole-6-carboxamido)propanoic acid] |  |  | stronger binding to glucose |
